Literature values in patent US7575768B2, “Dietary supplements and prepared foods containing triglyceride-recrystallized non-esterified phytosterols” (Brandeis University, priority 2005, dated 2009).

Test system: humans

For `CC[C@H](CC[C@@H](C)[C@H]1CC[C@H]2[C@@H]3CC=C4C[C@@H](O)CC[C@]4(C)[C@H]3CC[C@]12C)C(C)C` [beta sitosterol], the “lowering of serum cholesterol” value (12-18 g per day in divided doses, males with atherosclerosis) is given as 15-20%.

For `CC[C@H](CC[C@@H](C)[C@H]1CC[C@H]2[C@@H]3CC=C4C[C@@H](O)CC[C@]4(C)[C@H]3CC[C@]12C)C(C)C` [sitosterol], the “decrease of plasma cholesterol level” value (9-18 grams per day, coarse powdered form) is given as “approximately 15%”.
